Patent publication US5093134A, “Method of treating HIV infection using polyoxometallates” (Johnson Matthey Public Limited Company, priority 1989, dated 1992)
Values joined by “and” are separate entries in the source; they are usually repeats but may differ in a detail not shown here. Equal entries are not always repeated.

Experiments:
HIV-1 (HTLV-IIIB) = assay: microbe, parasite or virus in culture; assay type: cell-based; conditions: for Selectivity Index (SI), ratio of CD50 to ED50 / ED50: HIV-1, MT-4 cells; for ED50: 100 CCID50, 5 days, MTT
Protocol: (§1) The compounds were tested in a screen by the MTT method (J. Virol. Methods […]: 309-321 [1988]). MT-4 cells (2.5×10^4 /well) were infected with HIV-1 (HTLV-IIIB) or HIV-2 (LAV-2 ROD) at a concentration of 100 CCID50 and incubated in the presence of various concentrations of the test compounds, which were added immediately after infection with the virus. After 5 days culture at 37° C. in a CO2 incubator, the number of viable cells was assessed by the MTT (tetrazolium) method. […] The potential therapeutic usefulness was assessed by calculating a Selectivity Index (SI) corresponding to the ratio of CD50 to ED50.

HIV-2 (LAV-2 ROD) = assay: MTT screen of HIV-2 infected MT-4 cells (antiviral activity); assay type: cell-based; conditions: for ED50: 100 CCID50, 5 days, MTT
Protocol: as §1

HIV = conditions: in words; cited from earlier work
MT-4 cells = assay: in vitro
Protocol: as §1

in vitro = conditions: human, mt-4 cells
Protocol: as §1

cells = conditions: in words; cited from earlier work
herpes virus = conditions: in words; cited from earlier work
reverse transcriptase = conditions: in words; cited from earlier work

(C6 H11 NH3^+)6 [SiCo(C6 H11 NH2)W11 O39 ]yH2 O [Compound B]
Selectivity Index (SI), ratio of CD50 to ED50 (HIV-1 (HTLV-IIIB)): 99
ED50 (HIV-1 (HTLV-IIIB)): 0.98 µg/mL
Selectivity Index (SI), ratio of CD50 to ED50 (HIV-2 (LAV-2 ROD)): 26
ED50 (HIV-2 (LAV-2 ROD)): 3.01 µg/mL

silicotungstate acid [H4 SiW12 O40]
activity against HIV (HIV): activity against HIV

K13 [Ce(SiW11 O39)2 ]26H2 O
Selectivity Index (SI), ratio of CD50 to ED50 (HIV-1 (HTLV-IIIB)): > 2561
ED50 (HIV-1 (HTLV-IIIB)): 0.39 µg/mL
CD50 (MT-4 cells; human, mt-4 cells, 120 h): > 1000.0 µg/mL
Selectivity Index (SI), ratio of CD50 to ED50 (HIV-2 (LAV-2 ROD)): > 6357
ED50 (HIV-2 (LAV-2 ROD)): 0.157 µg/mL

K6 [SiCu(OH2)W11 O39 ]yH2 O
Selectivity Index (SI), ratio of CD50 to ED50 (HIV-1 (HTLV-IIIB)): > 84
ED50 (HIV-1 (HTLV-IIIB)): < 2.0 µg/mL
Selectivity Index (SI), ratio of CD50 to ED50 (HIV-2 (LAV-2 ROD)): > 125
ED50 (HIV-2 (LAV-2 ROD)): < 2.0 µg/mL

K5 [PNi(OH2)W11 O39 ]14H2 O
Selectivity Index (SI), ratio of CD50 to ED50 (HIV-1 (HTLV-IIIB)): < 1
ED50 (HIV-1 (HTLV-IIIB)): > 250.0 µg/mL
Selectivity Index (SI), ratio of CD50 to ED50 (HIV-2 (LAV-2 ROD)): < 1
ED50 (HIV-2 (LAV-2 ROD)): > 250.0 µg/mL

K7 [BCu(OH2)W11 O39 ]yH2 O
Selectivity Index (SI), ratio of CD50 to ED50 (HIV-1 (HTLV-IIIB)): 32
ED50 (HIV-1 (HTLV-IIIB)): 3.51 µg/mL
Selectivity Index (SI), ratio of CD50 to ED50 (HIV-2 (LAV-2 ROD)): 62
ED50 (HIV-2 (LAV-2 ROD)): 2.56 µg/mL

Cc1cn([C@H]2C[C@H](N=[N+]=[N-])[C@@H](CO)O2)c(=O)[nH]c1=O [AZT, reference compound]
Selectivity Index (SI), ratio of CD50 to ED50 (HIV-1 (HTLV-IIIB)): 125 and > 125
EC50 (HIV-1 (HTLV-IIIB); Human immunodeficiency virus 1, IIIB, MT4, 120 h, read-out: ED50): < 8 nM
CC50 at 120 h (in vitro): > 1000 nM
toxicity (in words) (MT-4 cells): rather high toxicity
toxicity to cells (cells): high toxicity to cells

K6 [BRh(OH2)W11 O39 ]14H2 O
Selectivity Index (SI), ratio of CD50 to ED50 (HIV-1 (HTLV-IIIB)): 97
ED50 (HIV-1 (HTLV-IIIB)): 5.88 µg/mL
Selectivity Index (SI), ratio of CD50 to ED50 (HIV-2 (LAV-2 ROD)): 18
ED50 (HIV-2 (LAV-2 ROD)): 31.58 µg/mL

K5 [BPt(OH2)W11 O39 ]yH2 O
Selectivity Index (SI), ratio of CD50 to ED50 (HIV-1 (HTLV-IIIB)): 198
ED50 (HIV-1 (HTLV-IIIB)): 1.66 µg/mL
Selectivity Index (SI), ratio of CD50 to ED50 (HIV-2 (LAV-2 ROD)): 49
ED50 (HIV-2 (LAV-2 ROD)): 6.21 µg/mL

K5 [SiGa(OH2)W11 O39 ]yH2 O
Selectivity Index (SI), ratio of CD50 to ED50 (HIV-1 (HTLV-IIIB)): 100
ED50 (HIV-1 (HTLV-IIIB)): 1.06 µg/mL
Selectivity Index (SI), ratio of CD50 to ED50 (HIV-2 (LAV-2 ROD)): 14
ED50 (HIV-2 (LAV-2 ROD)): 6.19 µg/mL

K7 PW10 Ti2 O40
activity against herpes virus (herpes virus): activity against herpes virus

(C5 H5 NH^+)6 [SiCo(C5 H5 N)W11 O39 ]yH2 O [Compound A]
Selectivity Index (SI), ratio of CD50 to ED50 (HIV-1 (HTLV-IIIB)): > 502
ED50 (HIV-1 (HTLV-IIIB)): 1.99 µg/mL
CD50 (MT-4 cells; human, mt-4 cells, 120 h): > 1000.0 µg/mL
Selectivity Index (SI), ratio of CD50 to ED50 (HIV-2 (LAV-2 ROD)): > 415
ED50 (HIV-2 (LAV-2 ROD)): 2.41 µg/mL

K6 [BGa(OH2)W11 O39 ]yH2 O
Selectivity Index (SI), ratio of CD50 to ED50 (HIV-1 (HTLV-IIIB)): 5151
ED50 (HIV-1 (HTLV-IIIB)): 0.12 µg/mL
Selectivity Index (SI), ratio of CD50 to ED50 (HIV-2 (LAV-2 ROD)): 298
ED50 (HIV-2 (LAV-2 ROD)): 1.62 µg/mL

K7 [BCo(OH2)W11 O39 ]yH2 O
Selectivity Index (SI), ratio of CD50 to ED50 (HIV-1 (HTLV-IIIB)): 47
ED50 (HIV-1 (HTLV-IIIB)): 2.74 µg/mL
Selectivity Index (SI), ratio of CD50 to ED50 (HIV-2 (LAV-2 ROD)): < 1
ED50 (HIV-2 (LAV-2 ROD)): > 200.0 µg/mL

K5 BW12 O40
activity against herpes virus (herpes virus): activity against herpes virus

K5 [PCu(OH2)W11 O39 ]yH2 O
Selectivity Index (SI), ratio of CD50 to ED50 (HIV-1 (HTLV-IIIB)): > 82
ED50 (HIV-1 (HTLV-IIIB)): 3.04 µg/mL
Selectivity Index (SI), ratio of CD50 to ED50 (HIV-2 (LAV-2 ROD)): > 68
ED50 (HIV-2 (LAV-2 ROD)): < 2.0 µg/mL

K6 [SiNi(OH2)W11 O39 ]15H2 O
Selectivity Index (SI), ratio of CD50 to ED50 (HIV-1 (HTLV-IIIB)): 103
ED50 (HIV-1 (HTLV-IIIB)): 1.93 µg/mL
CD50 (MT-4 cells; human, mt-4 cells, 120 h): 198.43 µg/mL
Selectivity Index (SI), ratio of CD50 to ED50 (HIV-2 (LAV-2 ROD)): 55
ED50 (HIV-2 (LAV-2 ROD)): 3.58 µg/mL

K6 [SiCo(OH2)W11 O39 ]yH2 O
Selectivity Index (SI), ratio of CD50 to ED50 (HIV-1 (HTLV-IIIB)): > 52
ED50 (HIV-1 (HTLV-IIIB)): < 2.0 µg/mL
Selectivity Index (SI), ratio of CD50 to ED50 (HIV-2 (LAV-2 ROD)): > 15
ED50 (HIV-2 (LAV-2 ROD)): < 2.0 µg/mL

((CH3)3 NH^+)5 [SiSn(CH3)W11 O39 ]yH2 O [Compound C]
Selectivity Index (SI), ratio of CD50 to ED50 (HIV-1 (HTLV-IIIB)): 40
ED50 (HIV-1 (HTLV-IIIB)): 0.57 µg/mL
Selectivity Index (SI), ratio of CD50 to ED50 (HIV-2 (LAV-2 ROD)): 19
ED50 (HIV-2 (LAV-2 ROD)): 3.48 µg/mL

NaSb9 W21 O86 [HPA-23, reference compound]
Selectivity Index (SI), ratio of CD50 to ED50 (HIV-1 (HTLV-IIIB)): 3
ED50 (HIV-1 (HTLV-IIIB)): 2.8 µg/mL
CD50 (MT-4 cells; HIV-1, MT-4 cells, 5 days, 37° C., MTT): 7.4 µg/mL
CD50 (MT-4 cells; HIV-2, MT-4 cells, 5 days, 37° C., MTT): 2.4 µg/mL
reverse transcriptase inhibition (reverse transcriptase): reverse transcriptase inhibitor
Selectivity Index (SI), ratio of CD50 to ED50 (HIV-2 (LAV-2 ROD)): < 1
ED50 (HIV-2 (LAV-2 ROD)): > 4 µg/mL
